Source: US20080317702A1, “METHOD FOR TREATING MICROORGANISMS AND/OR INFECTIOUS AGENTS” (priority 2007, published 2008)
“And” between values parts separate entries of the source, which are not always exact repeats. Identical values can stand only once.

Tested on: HeLa cells
Assay: Toxicity to HeLa cells in culture, MTT (Example 23)
Format: cell-based, human
Settings: 48 hours of culture
Procedure: The toxicity of Example 1 is compared to Chlorohexidine gluconate (a commonly used oral antiseptic) to human HeLa cells in culture is determined. HeLa cells are plated at subconfluency into a 96-well plate tissue culture plate, and after attachment, treated with the indicated final concentrations of Example 1 polymer or Chlorohexidine gluconate in triplicates. After 48 hours of culture, MTT reagent is added for two 2 hours to permit the development of viability-indicating color. 1 μM PAO (phenylarsine oxide) is used as a positive (effective killing) control. […] Furthermore, the minimum inhibitory concentration of Example 1 polymer is found to be about 10^−3% while that for the chlorohexidine gluconate is 6×10^−5%. This means that the Example 1 polymer is about […] less toxic to HeLa cells in culture than chlorohexidine gluconate.

N=C(NCCCCCCNC(=N)NC(=N)Nc1ccc(Cl)cc1)NC(=N)Nc1ccc(Cl)cc1.O=C(O)[C@H](O)[C@@H](O)[C@H](O)[C@H](O)CO.O=C(O)[C@H](O)[C@@H](O)[C@H](O)[C@H](O)CO [chlorohexidine gluconate]
Lethal dose 50 (LD50) for HeLa cells: ~0.0004% and > 1.2×10^−4%
